Values after ≈ are worked out from the molar mass of the structure shown. Like-named read-outs stand apart in the source and are kept apart here. Positions of bridges follow the written chain, without caps; N, C: chain ends. Non-standard residues stand in square brackets, D forms with d. Residues, ends and D or L forms follow the SMILES beside them. *: point of attachment. Decanoyl(3R-OH) = CCCCCCC[C@@H](O)CC(=O)*; X12 = O=C(c1ccn(-c2ccccc2)c(=O)c1)*; d(hPhe) = N[C@H](CCc1ccccc1)C(=O)O; dDab = NCC[C@@H](N)C(=O)O; Orn = NCCC[C@H](N)C(=O)O; dDap = NC[C@@H](N)C(=O)O; Dab = NCC[C@H](N)C(=O)O; Dap = NC[C@H](N)C(=O)O
Assays:
A. baumannii ATCC 19606 = details: ATCC 19606
Procedure, shortened: (§1)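 Mid-log cultures grown in Mueller Hinton broth at 37° C were tested by 2-fold broth microdilution at 5×10^5 CFU/mL final. Compounds were dissolved in water and tested over a final range of 32 to 0.015 μg/mL.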

[1] = tested on: P. aeruginosa GN_043, PmxR
Procedure, shortened: as §1

P. aeruginosa ATCC 27853 = details: ATCC 27853
Procedure, shortened: as §1

[2] = tested on: S. aureus ATCC 25923, MSSA; details: ATCC 25923
Procedure, shortened: as §1

[3] = tested on: K. pneumoniae GN_102 PmxR; details: GN 102 PmxR
Procedure, shortened: as §1

E. coli ATCC 25922 = details: ATCC 25922
Procedure, shortened: as §1

[4] = tested on: K. pneumoniae ATCC BAA-2146, NDM-1 pos; details: ATCC BAA-2146
Procedure, shortened: as §1

[5] = tested on: P. aeruginosa GN_105, PmxR; details: GN 105, PmxR
Procedure, shortened: as §1

[6] = tested on: K. pneumoniae ATCC 700603, MDR; details: ATCC 700603
Procedure, shortened: as §1

A. baumannii GN_093 PmxR = details: GN 093 PmxR
Procedure, shortened: as §1

[7] = tested on: K. pneumoniae GN_106, PmxR; details: GN 106, PmxR
Procedure, shortened: as §1

K. pneumoniae ATCC 13883 = details: ATCC 13883
Procedure, shortened: as §1

in vitro = details: human
Experimental: Cytotoxicity of the synthesised peptides was evaluated by comparison with commercially available colistin (polymyxin E), polymyxin B (Sigma chemical Co., St. Louis, Mo., U.S.A.) and synthetic octapeptin C4 by conducting lactate dehydrogenase (LDH) assay. CC50 values calculated based on curve fitting of dose dependent inhibition of cell growth represented the cytotoxicity of the peptide. Human kidney 2 (HK2) cells were seeded as 2000 cells per well in a 384 well cell culture plate in a final volume of 20 μL in DMEM/F12 medium (Invitrogen #11330057), in which 10% of FBS was added. Cells were incubated for 24 hours at 37° C., 5% CO2 to allow cells to attach to the plates. Similar conditions were employed for HEK293 and HepG2 cytotoxicity assays.
Cytotoxicity to HEK293 and HepG2 cells was determined using the resazurin assay (McMillian, M. K.; Li, L.; Parker, J. B.; Patel, L.; Zhong, Z.; Gunnett, J. W.; Powers, W. J.; Johnson, M. D. An improved resazurin-based cytotoxicity assay for hepatic cells; Cell Biol. Toxicol. 2002, 18, 157-173; O'Brien, J.; Wilson, I.; Orton, T.; Pognan, F. Investigation of the Alamar Blue (resazurin) fluorescent dye for the assessment of mammalian cell cytotoxicity. Eur. J. Biochem. 2000, 267, 5421-5426). In brief, HEK293 and HepG2 cells were seeded at 4000 cells/well in black-wall, clear-bottom 384-well plates (Corning, Australia) and incubated for 24 h at 37° C., 5% CO2. Compounds were then added into each well. After 24 h incubation, 5 μM resazurin was added per well and incubated at 37° C. for 2 h. Fluorescence intensity was then read using a Polarstar Omega with excitation/emission 560/590. The data was then analyzed using GraphPad Prism 6 software. CC50 values were determined using GraphPad Prism 6 software (Inc. La Jolla, Calif.).

Row | SMILES | MIC A. baumannii ATCC 19606 (A. baumannii ATCC 19606) | MIC P. aeruginosa GN_043, PmxR ([1]; P. aeruginosa GN_043, PmxR) | MIC P. aeruginosa ATCC 27853 (P. aeruginosa ATCC 27853) | MIC S. aureus ATCC 25923, MSSA [2] | MIC K. pneumoniae GN_102 PmxR [3] | MIC E. coli ATCC 25922 (E. coli ATCC 25922) | MIC K. pneumoniae ATCC BAA-2146, NDM-1 pos [4] | MIC P. aeruginosa GN_105, PmxR [5] | MIC K. pneumoniae ATCC 700603, MDR [6] | MIC A. baumannii GN_093 PmxR (A. baumannii GN_093 PmxR) | MIC K. pneumoniae GN_106, PmxR [7] | MIC K. pneumoniae ATCC 13883 (K. pneumoniae ATCC 13883) | CC50 at 24 h (in vitro) | further results
1 | CC(C)C[C@@H]1NC(=O)[C@H](CCN)NC(=O)[C@H](CCN)NC(=O)[C@H](CC(C)C)NC(=O)[C@@H](Cc2ccccc2)NC(=O)[C@H](CCN)NC(=O)[C@@H](NC(=O)[C@@H](CN)NC(=O)c2ccn(-c3ccccc3)c(=O)c2)CCNC1=O [compound 9189, 4-(1-Ph-pyridinone)-D-Dap-cyc[L-Dab-L-Dab-D-Phe-L-Leu-L-Dab-L-Dab-L-Leu]] (X12-[dDap][Dab][Dab][dF]L[Dab][Dab]L; lactam 2-C) | >32 µg/mL | 4 µg/mL (≈ 3.78 µM) | 4 µg/mL (≈ 3.78 µM) | >32 µg/mL | >32 µg/mL | >32 µg/mL | 32 µg/mL (≈ 30.3 µM) | 16 µg/mL (≈ 15.1 µM) | 32 µg/mL (≈ 30.3 µM) | >32 µg/mL | >32 µg/mL | >32 µg/mL | > 300 µM | –
2 | CCCCCCC[C@@H](O)CC(=O)N[C@H](CCN)C(=O)N[C@H]1CCNC(=O)[C@H](Cc2c[nH]c3ccccc23)NC(=O)[C@H](CCN)NC(=O)[C@H](CCN)NC(=O)[C@H](CC(C)C)NC(=O)[C@@H](CCc2ccccc2)NC(=O)[C@H](CCN)NC1=O [compound 8129, 3(R)OH-nC9CO-D-Dab-cyc[L-Dab-L-Dab-L-Dab-D-hPhe-L-Leu-L-Dab-L-Dab-L-Trp]] ({Decanoyl(3R-OH)}-[dDab][Dab][Dab][d(hPhe)]L[Dab][Dab]W; lactam 2-C) | 4 µg/mL (≈ 3.54 µM) | – | 2 µg/mL (≈ 1.77 µM) | 2 µg/mL (≈ 1.77 µM) | 4 µg/mL (≈ 3.54 µM) | 2 µg/mL (≈ 1.77 µM) | 4 µg/mL (≈ 3.54 µM) | 2 µg/mL (≈ 1.77 µM) | 4 µg/mL (≈ 3.54 µM) | 4 µg/mL (≈ 3.54 µM) | 4 µg/mL (≈ 3.54 µM) | 4 µg/mL (≈ 3.54 µM) | 37 µM | MIC P. aeruginosa GN_043, PmxR ([1]; polymyxin-resistant): 4 µg/mL (≈ 3.54 µM)
3 | CCCCCCC[C@@H](O)CC(=O)N[C@H](CCN)C(=O)N[C@H]1CCNC(=O)[C@H](CC(C)C)NC(=O)[C@H](CCN)NC(=O)[C@H](CCN)NC(=O)[C@@H](Cc2ccccc2)NC(=O)[C@H](CC(C)C)NC(=O)[C@H](CCN)NC1=O [compound 9194, 3(R)-OH-nC9CO-D-Dab-cyc[L-Dab-L-Dab-L-Leu-D-Phe-L-Dab-L-Dab-L-Leu]] ({Decanoyl(3R-OH)}-[dDab][Dab][Dab]L[dF][Dab][Dab]L; lactam 2-C) | >32 µg/mL | >32 µg/mL | 32 µg/mL (≈ 30.6 µM) | 32 µg/mL (≈ 30.6 µM) | >32 µg/mL | 32 µg/mL (≈ 30.6 µM) | >32 µg/mL | >32 µg/mL | >32 µg/mL | >32 µg/mL | >32 µg/mL | >32 µg/mL | > 300 µM | –
4 | CCCCCCC[C@@H](O)CC(=O)N[C@H](CCN)C(=O)N[C@H]1CCNC(=O)[C@H](Cc2c[nH]cn2)NC(=O)[C@H](CCN)NC(=O)[C@H](CCN)NC(=O)[C@H](CC(C)C)NC(=O)[C@@H](Cc2ccccc2)NC(=O)[C@H](CCN)NC1=O [compound 8911, 3(R)OH-nC9CO-D-Dab-cyc[L-Dab-L-Dab-D-Phe-L-Leu-L-Dab-L-Dab-L-His]] ({Decanoyl(3R-OH)}-[dDab][Dab][Dab][dF]L[Dab][Dab]H; lactam 2-C) | >32 µg/mL | – | 2 µg/mL (≈ 1.87 µM) | >32 µg/mL | >32 µg/mL | 8 µg/mL (≈ 7.49 µM) | 16 µg/mL (≈ 15 µM) | 16 µg/mL (≈ 15 µM) | 8 µg/mL (≈ 7.49 µM) | >32 µg/mL | 32 µg/mL (≈ 30 µM) | >32 µg/mL | > 300 µM | MIC P. aeruginosa GN_043, PmxR ([1]; polymyxin-resistant): 2 µg/mL (≈ 1.87 µM)
5 | CCCCCCC[C@@H](O)CC(=O)N[C@@H](CN)C(=O)N[C@H]1CCNC(=O)[C@H](CC(C)C)NC(=O)[C@H](CCN)NC(=O)[C@H](CCN)NC(=O)[C@H](CC(C)C)NC(=O)[C@@H](Cc2ccccc2)NC(=O)[C@H](CCN)NC1=O [compound 5561, 3(R)OH-nC9CO-L-Dap-cyc[L-Dab-L-Dab-D-Phe-L-Leu-L-Dab-L-Dab-L-Leu]] ({Decanoyl(3R-OH)}-[Dap][Dab][Dab][dF]L[Dab][Dab]L; lactam 2-C) | – | – | – | – | 4 µg/mL (≈ 3.88 µM) | – | – | 2 µg/mL (≈ 1.94 µM) | – | 8 µg/mL (≈ 7.76 µM) | 4 µg/mL (≈ 3.88 µM) | – | > 300 µM | MIC, A. baumannii ATCC 19606 (A. baumannii ATCC 19606): 16 µg/mL (≈ 15.5 µM); MIC P. aeruginosa GN_043, PmxR ([1]; Table 6, polymyxin-resistant): 2 µg/mL (≈ 1.94 µM); MIC, P. aeruginosa ATCC 27853 (P. aeruginosa ATCC 27853): 2 µg/mL (≈ 1.94 µM); MIC, S. aureus ATCC 25923, MSSA [2]: 16 µg/mL (≈ 15.5 µM); MIC, E. coli ATCC 25922 (E. coli ATCC 25922): 4 µg/mL (≈ 3.88 µM); MIC, K. pneumoniae ATCC BAA-2146, NDM-1 pos [4]: 8 µg/mL (≈ 7.76 µM); MIC, K. pneumoniae ATCC 700603, MDR [6]: 8 µg/mL (≈ 7.76 µM); MIC, K. pneumoniae ATCC 13883 (K. pneumoniae ATCC 13883): 4 µg/mL (≈ 3.88 µM)
6 | CCCCCCC[C@@H](O)CC(=O)N[C@H](CCN)C(=O)N[C@H]1CCNC(=O)[C@H](CC(C)C)NC(=O)[C@H](CCN)NC(=O)[C@H](CCN)NC(=O)[C@H](CC(C)C)NC(=O)[C@@H](Cc2ccccc2)NC(=O)[C@H](CCCN)NC1=O [compound 994, 3(R)OH-nC9CO-D-Dab-cyc[L-Dab-L-Orn-D-Phe-L-Leu-L-Dab-L-Dab-L-Leu]] ({Decanoyl(3R-OH)}-[dDab][Dab][Orn][dF]L[Dab][Dab]L; lactam 2-C) | – | – | – | – | – | – | – | – | – | – | – | – | > 300 µM | MIC, A. baumannii ATCC 19606 (A. baumannii ATCC 19606): 32 µg/mL (≈ 30.2 µM); MIC, P. aeruginosa FADDI-PA070, PmxR ([1]; Table 5, polymyxin-resistant): >32 µg/mL; MIC, P. aeruginosa ATCC 27853 (P. aeruginosa ATCC 27853): 2 µg/mL (≈ 1.89 µM); MIC, S. Aureus ATCC 25923, MSSA [2]: 32 µg/mL (≈ 30.2 µM); MIC, K. pneumoniae Cl Koprana 10065 0661:1, PmxR [3]: 4 µg/mL (≈ 3.78 µM); MIC, E. coli ATCC 25922 (E. coli ATCC 25922): 8 µg/mL (≈ 7.56 µM); MIC, K. pneumoniae ATCC BAA-2146, NDM-1 pos [4]: 8 µg/mL (≈ 7.56 µM); MIC, P. aeruginosa PA9704, PmxR [5]: 8 µg/mL (≈ 7.56 µM); MIC, K. pneumoniae ATCC 700603, MDR [6]: 8 µg/mL (≈ 7.56 µM); MIC, A. baumannii Cl Ptyela 10073 4512:2, PmxR (A. baumannii GN_093 PmxR): 32 µg/mL (≈ 30.2 µM); MIC, K. pneumoniae Cl 138-16347-20362, PmxR [7]: 4 µg/mL (≈ 3.78 µM); MIC, K. pneumoniae ATCC 13883 (K. pneumoniae ATCC 13883): 4 µg/mL (≈ 3.78 µM)
7 | CCCCCCC[C@@H](O)CC(=O)N[C@H](CN)C(=O)N[C@H]1CCNC(=O)[C@H](CC(C)C)NC(=O)[C@H](CCN)NC(=O)[C@H](CCN)NC(=O)[C@H]([C@@H](C)O)NC(=O)[C@@H](Cc2ccccc2)NC(=O)[C@H](CCN)NC1=O [compound 9295, 3(R)OH-nC9CO-D-Dap-cyc[L-Dab-L-Dab-D-Phe-L-Thr-L-Dab-L-Dab-L-Leu]] ({Decanoyl(3R-OH)}-[dDap][Dab][Dab][dF]T[Dab][Dab]L; lactam 2-C) | 4 µg/mL (≈ 3.93 µM) | 2 µg/mL (≈ 1.96 µM) | 2 µg/mL (≈ 1.96 µM) | – | 2 µg/mL (≈ 1.96 µM) | 2 µg/mL (≈ 1.96 µM) | 4 µg/mL (≈ 3.93 µM) | 4 µg/mL (≈ 3.93 µM) | 4 µg/mL (≈ 3.93 µM) | 4 µg/mL (≈ 3.93 µM) | 4 µg/mL (≈ 3.93 µM) | 4 µg/mL (≈ 3.93 µM) | > 300 µM | –

— patent publication US11279733B2, “Peptide antibiotics” (priority 2017, dated 2022)
